From PMC2680961, “Homologous desensitization of signalling by the alpha (α) isoform of the human thromboxane A2 receptor: A specific role for nitric oxide signalling” (Biochimica et Biophysica Acta, 2007)

Target: T1, TPα^S331,T337,S340A (Homo sapiens, UniProt P21731, S331A/S340A/T337A)
T1 construct: expressed in transfected cells
T1 sequence (P21731 1-343 S331A/T337A/S340A): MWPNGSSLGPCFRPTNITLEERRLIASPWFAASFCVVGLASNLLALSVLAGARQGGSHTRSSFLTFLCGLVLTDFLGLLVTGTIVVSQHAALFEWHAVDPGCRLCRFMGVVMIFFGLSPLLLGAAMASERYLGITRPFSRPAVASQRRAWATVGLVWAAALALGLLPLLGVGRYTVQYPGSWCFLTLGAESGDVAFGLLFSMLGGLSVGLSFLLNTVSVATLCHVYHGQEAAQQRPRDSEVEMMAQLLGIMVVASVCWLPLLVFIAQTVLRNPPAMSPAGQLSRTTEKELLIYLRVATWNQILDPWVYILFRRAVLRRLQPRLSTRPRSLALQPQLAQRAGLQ
Assay: Intracellular calcium mobilization, HEK.TP^S331,T337,S340A cells
Type: cell-based
Settings: for Δ[Ca2+]i, U46619-induced: HEK.TP^S331,T337,S340A
Experimental: Measurement of intracellular calcium mobilization ([Ca^2+]i) in FURA2/AM preloaded HEK 293 cell lines (2 × 10^6 cells/dish), each transiently co-transfected with pADVA (10 μg), and pCMV:Gαq (25 μg), was carried out as previously described. To investigate the effect of GRK2/βARK1 on TP-mediated [Ca^2+]i mobilization, HEK.TPα or HEK.TPβ cells (2 × 10^6 cells/dish) were co-transfected with pADVA (10 μg), pCMV:Gαq (25 μg) along with pRK5:βARK1^495–689 (25 μg), encoding a dominant negative form of GRK2/βARK1[39]. Approximately 48 h post-transfection, cells were harvested by scraping, washed twice in ice-cold PBS and resuspended in HBSSHB (modified Ca^2+/Mg^2+-free Hank's buffered salt solution, containing […], pH 7.67, 0.1% bovine serum albumin (BSA)) buffer at 10^7 cells/ml and incubated in the dark with 5 μM FURA2/AM for 45 min at 37 °C. […] For each measurement of [Ca^2+]i mobilization, aliquots of cells were diluted to 0.825 × 10^6 cells/ml in HBSSHB, 1 mM CaCl2 and FURA2 fluorescence was recorded (2 ml aliquots of cells) at 37^ °C with gentle stirring with a Perkin Elmer-Cetus LS50-B spectrofluorometer at excitation wavelengths of 340 nm and 380 nm and emission wavelength of 510 nm, respectively.
Cells were stimulated with the TP agonist U46619 (1 μM) and changes in [Ca^2+]i mobilization were monitored as a function of time. To assess agonist-mediated homologous desensitization, cells (0.825 × 10^6 cells/ml; 2 ml per assay) were stimulated with 1 μM U46619 (Primary stimulation) or, as a control, with the vehicle for 4 min; thereafter, cells were collected by centrifugation (900×g, 5 min); were washed twice in 2 ml HBSSHB, 1 mM CaCl2; and finally resuspended in 2 ml HBSSHB,1 mM CaCl2 and were left to recover over various time intervals (ranging from 0 to 60 min); thereafter, cells re-stimulated with 1 μM U46619 (Secondary stimulation) and changes in [Ca^2+]i mobilization were monitored as a function of time. […]

## CCCCC[C@H](O)/C=C/[C@@H]1[C@@H](C/C=C\CCCC(=O)O)[C@H]2CO[C@@H]1C2 [U46619]
Primary 1 μM U46619 4 min
  Δ[Ca2+]i, U46619-induced: 195 ± 12 nM
Secondary 1 μM U46619 at 15 min
  Δ[Ca2+]i, U46619-induced: 67 ± 8.2 nM
TPα^S331,T337,S340A
  secondary U46619 [Ca2+]i response relative to primary response: ~34%
